Laboratory results from ChEMBL document CHEMBL5055675, “Apoptosis Inducing 1,3,4-Oxadiazole Conjugates of Capsaicin: Their In Vitro Antiproliferative and In Silico Studies” (ACS Med Chem Lett, 2021).

Experiments:
Assay type in all cases: functional
HL-60(TB) = assay: Antiproliferative activity against human HL-60 (TB) cells assessed as cell growth at 10 uM incubated for 48 hrs by sulforhodamine B assay relative to control; conditions: read-out: Activity
MOLT-4 = assay: Antiproliferative activity against human MOLT-4 cells assessed as cell growth at 10 uM incubated for 48 hrs by sulforhodamine B assay relative to control; conditions: read-out: Activity
RPMI-8226 = assay: Antiproliferative activity against human RPMI-8226 cells assessed as cell growth at 10 uM incubated for 48 hrs by sulforhodamine B assay relative to control; conditions: read-out: Activity
SR = assay: Antiproliferative activity against human SR cells assessed as cell growth at 10 uM incubated for 48 hrs by sulforhodamine B assay relative to control; conditions: read-out: Activity
NCI-H226 = assay: Antiproliferative activity against human NCI-H226 cells assessed as cell growth at 10 uM incubated for 48 hrs by sulforhodamine B assay relative to control; conditions: read-out: Activity
NCI-H23 = assay: Antiproliferative activity against human NCI-H23 cells assessed as cell growth at 10 uM incubated for 48 hrs by sulforhodamine B assay relative to control; conditions: read-out: Activity
NCI-H460 = assay: Antiproliferative activity against human NCI-H460 cells assessed as cell growth at 10 uM incubated for 48 hrs by sulforhodamine B assay relative to control; conditions: read-out: Activity
HCT-116 [1] = assay: Antiproliferative activity against human HCT-116 cells assessed as cell growth at 10 uM incubated for 48 hrs by sulforhodamine B assay relative to control; conditions: read-out: Activity
HCT-15 = assay: Antiproliferative activity against human HCT-15 cells assessed as cell growth at 10 uM incubated for 48 hrs by sulforhodamine B assay relative to control; conditions: read-out: Activity
KM12 = assay: Antiproliferative activity against human KM12 cells assessed as cell growth at 10 uM incubated for 48 hrs by sulforhodamine B assay relative to control; conditions: read-out: Activity
SW-620 = assay: Antiproliferative activity against human SW-620 cells assessed as cell growth at 10 uM incubated for 48 hrs by sulforhodamine B assay relative to control; conditions: read-out: Activity
SF-539 = assay: Antiproliferative activity against human SF-539 cells assessed as cell growth at 10 uM incubated for 48 hrs by sulforhodamine B assay relative to control; conditions: read-out: Activity
SNB-19 = assay: Antiproliferative activity against human SNB-19 cells assessed as cell growth at 10 uM incubated for 48 hrs by sulforhodamine B assay relative to control; conditions: read-out: Activity
SNB-75 = assay: Antiproliferative activity against human SNB-75 cells assessed as cell growth at 10 uM incubated for 48 hrs by sulforhodamine B assay relative to control; conditions: read-out: Activity
U-251 = assay: Antiproliferative activity against human U-251 cells assessed as cell growth at 10 uM incubated for 48 hrs by sulforhodamine B assay relative to control; conditions: read-out: Activity
LOX IMVI = assay: Antiproliferative activity against human LOX IMVI cells assessed as cell growth at 10 uM incubated for 48 hrs by sulforhodamine B assay relative to control; conditions: read-out: Activity
M14 = assay: Antiproliferative activity against human M14 cells assessed as cell growth at 10 uM incubated for 48 hrs by sulforhodamine B assay relative to control; conditions: read-out: Activity
MDA-MB-435 = assay: Antiproliferative activity against human MDA-MB-435 cells assessed as cell growth at 10 uM incubated for 48 hrs by sulforhodamine B assay relative to control; conditions: read-out: Activity
SK-MEL-28 = assay: Antiproliferative activity against human SK-MEL-28 cells assessed as cell growth at 10 uM incubated for 48 hrs by sulforhodamine B assay relative to control; conditions: read-out: Activity
SK-MEL-5 = assay: Antiproliferative activity against human SK-MEL-5 cells assessed as cell growth at 10 uM incubated for 48 hrs by sulforhodamine B assay relative to control; conditions: read-out: Activity
UACC-257 = assay: Antiproliferative activity against human UACC-257 cells assessed as cell growth at 10 uM incubated for 48 hrs by sulforhodamine B assay relative to control; conditions: read-out: Activity
UACC-62 = assay: Antiproliferative activity against human UACC-62 cells assessed as cell growth at 10 uM incubated for 48 hrs by sulforhodamine B assay relative to control; conditions: read-out: Activity
IGROV-1 = assay: Antiproliferative activity against human IGROV-1 cells assessed as cell growth at 10 uM incubated for 48 hrs by sulforhodamine B assay relative to control; conditions: read-out: Activity
OVCAR-3 = assay: Antiproliferative activity against human OVCAR-3 cells assessed as cell growth at 10 uM incubated for 48 hrs by sulforhodamine B assay relative to control; conditions: read-out: Activity
OVCAR-4 = assay: Antiproliferative activity against human OVCAR-4 cells assessed as cell growth at 10 uM incubated for 48 hrs by sulforhodamine B assay relative to control; conditions: read-out: Activity
OVCAR-5 = assay: Antiproliferative activity against human OVCAR-5 cells assessed as cell growth at 10 uM incubated for 48 hrs by sulforhodamine B assay relative to control; conditions: read-out: Activity
SK-OV-3 [2] = assay: Antiproliferative activity against human SK-OV-3 cells assessed as cell growth at 10 uM incubated for 48 hrs by sulforhodamine B assay relative to control; conditions: read-out: Activity
A498 = assay: Antiproliferative activity against human A498 cells assessed as cell growth at 10 uM incubated for 48 hrs by sulforhodamine B assay relative to control; conditions: read-out: Activity
ACHN = assay: Antiproliferative activity against human ACHN cells assessed as cell growth at 10 uM incubated for 48 hrs by sulforhodamine B assay relative to control; conditions: read-out: Activity
SN12C = assay: Antiproliferative activity against human SN12C cells assessed as cell growth at 10 uM incubated for 48 hrs by sulforhodamine B assay relative to control; conditions: read-out: Activity
DU-145 = assay: Antiproliferative activity against human DU-145 cells assessed as cell growth at 10 uM incubated for 48 hrs by sulforhodamine B assay relative to control; conditions: read-out: Activity
MCF7 = assay: Antiproliferative activity against human MCF7 cells assessed as cell growth at 10 uM incubated for 48 hrs by sulforhodamine B assay relative to control; conditions: read-out: Activity
MDA-MB-231 = assay: Antiproliferative activity against human MDA-MB-231/ATCC cells assessed as cell growth at 10 uM incubated for 48 hrs by sulforhodamine B assay relative to control; conditions: read-out: Activity
Hs-578T = assay: Antiproliferative activity against human Hs-578T cells assessed as cell growth at 10 uM incubated for 48 hrs by sulforhodamine B assay relative to control; conditions: read-out: Activity
BT-549 = assay: Antiproliferative activity against human BT-549 cells assessed as cell growth at 10 uM incubated for 48 hrs by sulforhodamine B assay relative to control; conditions: read-out: Activity
T47D = assay: Antiproliferative activity against human T47D cells assessed as cell growth at 10 uM incubated for 48 hrs by sulforhodamine B assay relative to control; conditions: read-out: Activity
MDA-MB-468 = assay: Antiproliferative activity against human MDA-MB-468 cells assessed as cell growth at 10 uM incubated for 48 hrs by sulforhodamine B assay relative to control; conditions: read-out: Activity
HCT-116 [3] = assay: Antiproliferative activity against human HCT-116 cells assessed as cell growth inhibition measured after 72 hrs by crystal violet staining based assay; conditions: HCT-116, 72 h
SK-OV-3 [4] = assay: Antiproliferative activity against human SK-OV-3 cells assessed as cell growth inhibition measured after 72 hrs by crystal violet staining based assay; conditions: SK-OV-3, 72 h

For `COc1cc(CNC(=O)CCCC/C=C/C(C)C)ccc1OCc1nnc(Nc2ccccc2F)o1`, the growth at 10 µM (HL-60(TB)) was 89.7%, the growth at 10 µM (MOLT-4) was 82% and the growth at 10 µM (RPMI-8226) was 64.9%. The growth at 10 µM (SR) was 67.3%, the growth at 10 µM (NCI-H226) was 64.5% and the growth at 10 µM (NCI-H23) was 63.8%. For the same molecule, the growth at 10 µM (NCI-H460) was 80.3%, the growth at 10 µM (HCT-116 [1]) was 53.5% and the growth at 10 µM (HCT-15) was 90.1%. For the same molecule, the growth at 10 µM (KM12) was 78.8%, the growth at 10 µM (SW-620) was 98.9% and the growth at 10 µM (SF-539) was 48.2%. For the same molecule, the growth at 10 µM (SNB-19) was 58.5%, the growth at 10 µM (SNB-75) was 57.8% and the growth at 10 µM (U-251) was 84%. It also gave a growth at 10 µM (LOX IMVI) of 83.4%, a growth at 10 µM (M14) of 99.7% and a growth at 10 µM (MDA-MB-435) of 100%. The growth at 10 µM (SK-MEL-28) was 85.2%, the growth at 10 µM (SK-MEL-5) was 86.6% and the growth at 10 µM (UACC-257) was 98.2%. For the same molecule, the growth at 10 µM (UACC-62) was 65.5%, the growth at 10 µM (IGROV-1) was 58.4% and the growth at 10 µM (OVCAR-3) was 68.3%. It also gave a growth at 10 µM (OVCAR-4) of 0.69%, a growth at 10 µM (OVCAR-5) of 77.7% and a growth at 10 µM (SK-OV-3 [2]) of 48.6%. The growth at 10 µM (A498) was 92.5%, the growth at 10 µM (ACHN) was 56% and the growth at 10 µM (SN12C) was 70.5%. It also gave a growth at 10 µM (DU-145) of 88.7%, a growth at 10 µM (MCF7) of 66.9% and a growth at 10 µM (MDA-MB-231) of 63.9%. The growth at 10 µM (Hs-578T) was 83.7%, the growth at 10 µM (BT-549) was 77% and the growth at 10 µM (T47D) was 65%. The growth at 10 µM (MDA-MB-468) was 58.9%, the IC50 (HCT-116 [3]) was 10.5 µM and the IC50 (SK-OV-3 [4]) was 12.5 µM.

`COc1cc(CNC(=O)CCCC/C=C/C(C)C)ccc1OCc1nnc(SCCc2c[nH]c3ccccc23)o1` was tested, and the growth at 10 µM (HL-60(TB)) was 50.2%, the growth at 10 µM (MOLT-4) was 29.2% and the growth at 10 µM (SR) was 49.3%. It also gave a growth at 10 µM (NCI-H226) of 67.2%, a growth at 10 µM (NCI-H23) of 66.6% and a growth at 10 µM (NCI-H460) of 89.8%. The growth at 10 µM (HCT-116 [1]) was 70%, the growth at 10 µM (HCT-15) was 68.6% and the growth at 10 µM (KM12) was 73.3%. For the same molecule, the growth at 10 µM (SW-620) was 84.7%, the growth at 10 µM (SF-539) was 80.8% and the growth at 10 µM (SNB-19) was 77%. It also gave a growth at 10 µM (SNB-75) of 83.1%, a growth at 10 µM (U-251) of 80.5% and a growth at 10 µM (LOX IMVI) of 55.2%. It also gave a growth at 10 µM (MDA-MB-435) of 90.2%, a growth at 10 µM (SK-MEL-28) of 104% and a growth at 10 µM (SK-MEL-5) of 105%. It also gave a growth at 10 µM (UACC-257) of 101%, a growth at 10 µM (UACC-62) of 67.5% and a growth at 10 µM (IGROV-1) of 73.7%. For the same molecule, the growth at 10 µM (OVCAR-3) was 88.3%, the growth at 10 µM (OVCAR-4) was 71.7% and the growth at 10 µM (OVCAR-5) was 102%. For the same molecule, the growth at 10 µM (SK-OV-3 [2]) was 85.7%, the growth at 10 µM (A498) was 73.3% and the growth at 10 µM (ACHN) was 76.5%. It also gave a growth at 10 µM (SN12C) of 83.1%, a growth at 10 µM (DU-145) of 94.9% and a growth at 10 µM (MCF7) of 58.8%. For the same molecule, the growth at 10 µM (MDA-MB-231) was 70.6%, the growth at 10 µM (Hs-578T) was 81% and the growth at 10 µM (BT-549) was 75%. For the same molecule, the growth at 10 µM (T47D) was 43%, the growth at 10 µM (MDA-MB-468) was 51.8% and the IC50 (HCT-116 [3]) was 13.4 µM. The IC50 (SK-OV-3 [4]) was 31.4 µM.
